Each structure is given as a SMILES string.

Test [1] has as its system Glucosylsphingosine (GlcSph). Description: Pharmacodynamic test using Gaucher's disease model mouse (glucosylsphingosine lowering effect). To be noted: Gba D409V KI mice, two hours after last administration, ± standard deviation. The test is classed as in vivo. As to the method: (§1) Pharmacodynamic Test Using Gaucher's Disease Model Mouse (Glucosylceramide and Glucosylsphingosine Lowering Effects)
(§2) Glucosylsphingosine (GlcSph) is known to be produced by deacylation of GlcCer and accumulated in tissues in patient with Gaucher's disease. Therefore, the GlcSph lowering effect of the compound of Example 119 due to the glucosylceramide synthase inhibitory effect was evaluated by measuring the GlcSph concentration in the tissue. For the experiment, Gba D409V KI mice, which were Gaucher's disease model mice in which GlcSph is accumulated, were purchased from Jackson Laboratory and used.
(§3) The test compound was prepared in a 0.5% methylcellulose suspension to a dose of 10 or 30 mg/kg, and orally administered. The administration was performed once a day for 2 months. Two hours after the last administration, the blood and cerebral cortex were collected, the plasma was prepared from the blood, and methanol is added to the cerebral cortex to prepare a homogenate. A mixed solution of isopropanol and ethanol was added to the obtained plasma and the methanol homogenate of the cerebral cortex, and the lipids were extracted. The GlcCer and GlcSph concentrations of the extracted samples were measured by LC/MS/MS.
(§4) The results of GlcCer were calculated from the following formula: (GlcCer concentration in the test compound administration group)/(GlcCer concentration in the 0.5% methylcellulose suspension administration group)×100. The results of GlcSph were calculated from the following formula: (GlcSph concentration in the test compound administration group)/(GlcSph concentration in the 0.5% methylcellulose suspension administration group)×100. The standard deviation values were also shown.

Test [2] relates to glucosylceramide (GlcCer). Description: Pharmacodynamic test using mouse (glucosylceramide lowering effect). It counts as in vivo. Conditions: C57BL/6J mice, 10 mg/kg oral, six hours after administration, ± standard deviation. As to the method:
Pharmacodynamic Test Using Mouse (Glucosylceramide Lowering Effect)
For the experiment, C57BL/6J mice were purchased from CLEA Japan, Inc. and used. Glucosylceramide synthase is an enzyme that synthesizes glucosylceramide (GlcCer) from uridine diphosphate glucose and ceramide. Therefore, the glucosylceramide synthase inhibitory effect of the compound of Example 119 was evaluated by measuring the GlcCer concentration in the tissue.
The test compound was prepared in a 0.5% methylcellulose suspension to a dose of 10 mg/kg, and orally administered. Six hours after the administration, the blood and cerebral cortex were collected, the plasma was prepared from the blood, and methanol is added to the cerebral cortex to prepare a homogenate. A mixed solution of isopropanol and ethanol was added to the obtained plasma and the methanol homogenate of the cerebral cortex, and the lipids were extracted. The GlcCer concentrations of the extracted samples were measured by LC/MS/MS.
The results were calculated from the following formula: (GlcCer concentration in the test compound administration group)/(GlcCer concentration in the 0.5% methylcellulose suspension administration group)×100.
The standard deviation values were also shown.

Test [3] addresses T1, glucosylceramide synthase (Homo sapiens, UniProt Q16739).
T1 construct: made in house; host or cells: Expi293F cells (transient expression, pcDNA3.3-TOPO vector); microsome fraction used as enzyme source
T1 sequence (Q16739 1-394): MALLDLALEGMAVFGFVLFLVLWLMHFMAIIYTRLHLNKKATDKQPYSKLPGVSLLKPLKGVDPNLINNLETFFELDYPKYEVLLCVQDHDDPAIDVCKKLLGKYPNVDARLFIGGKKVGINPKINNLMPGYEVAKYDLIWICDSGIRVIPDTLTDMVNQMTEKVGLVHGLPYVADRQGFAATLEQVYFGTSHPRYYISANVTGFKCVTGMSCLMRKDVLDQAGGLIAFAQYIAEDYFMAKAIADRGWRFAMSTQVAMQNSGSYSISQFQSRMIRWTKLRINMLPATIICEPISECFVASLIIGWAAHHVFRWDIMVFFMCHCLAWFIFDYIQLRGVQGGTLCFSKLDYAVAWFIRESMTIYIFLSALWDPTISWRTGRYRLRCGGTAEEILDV
The test is described as follows: Glucosylceramide synthase (GCS) enzyme assay, microsome fraction, C8 glucosylceramide quantified by Rapidfire MS/MS. To be noted: test compound 10 μM; 1.7 μM UDP-glucose, 3 μM C8 ceramide; room temperature 60 min; read-out: GCS enzyme inhibitory rate at 10 μM (%) (% of control). It counts as biochemical. The gist of the method:
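Test compound, 10 μM final, was run against human GCS from transfected Expi293F microsome fractions, using substrate solution of 6 μM C8 ceramide (in DOPC liposomes) plus 3.4 μM UDP-glucose, pH 7.5 Tris buffer, 60 min, room temperature. Product C8 glucosylceramide measured by Rapidfire MS/MS against an internal standard, % inhibition referenced to no-enzyme and DMSO wells.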

Test [4] deals with glucosylceramide (GlcCer). Description: Pharmacodynamic test using Gaucher's disease model mouse (glucosylceramide lowering effect). The test is classed as in vivo. To be noted: Gba D409V KI mice, two hours after last administration, ± standard deviation. As to the method:
as §1, §2, §3, §4

Where [5] appears, read: 10 mg/kg oral once a day for 2 months, cerebral cortex.
The mark [6] stands for this setting: 10 mg/kg oral once a day for 2 months, plasma.
The mark [7] stands for this setting: 30 mg/kg oral once a day for 2 months, cerebral cortex.
The mark [8] stands for this setting: 30 mg/kg oral once a day for 2 months, plasma.

Take `CC(C)(O)c1ccc(N2Cc3c(ccnc3-c3ccc(F)cc3OCC(F)(F)F)C2=O)cc1` [Example 119, 4-[4-fluoro-2-(2,2,2-trifluoroethoxy)phenyl]-2-[4-(2-hydroxypropan-2-yl)phenyl]-2,3-dihydro-1H-pyrrolo[3,4-c]pyridin-1-one]: the “GlcSph (% Control) cerebral cortex (10 mg/kg)” value in test [1] (setting [5]) was found to be 73 ± 27 % Control. Also, in test [1] (setting [6]), the “GlcSph (% Control) Plasma (10 mg/kg)” value is recorded as 58 ± 16 % Control. Moreover, the “GlcSph (% Control) cerebral cortex (30 mg/kg)” value in test [1] (setting [7]) was 61 ± 20 % Control. Further, the “GlcSph (% Control) Plasma (30 mg/kg)” value in test [1] (setting [8]) is 36 ± 9 % Control. Further, the “GlcCer (% Control) cerebral cortex” value in test [2] (cerebral cortex) is 52 ± 7 % Control. In test [2] (plasma), the “GlcCer (% Control) plasma” value worked out at 49 ± 14 % Control. In addition, the inhibition at 10 µM in test [3] was found to be 100%. In test [4] (setting [5]), the “GlcCer (% Control) cerebral cortex (10 mg/kg)” value was 58 ± 6 % Control. For the same molecule, the “GlcCer (% Control) Plasma (10 mg/kg)” value in test [4] (setting [6]) is 40 ± 10 % Control. Also, the “GlcCer (% Control) cerebral cortex (30 mg/kg)” value in test [4] (setting [7]) is on record as 40 ± 7 % Control. Further, the “GlcCer (% Control) Plasma (30 mg/kg)” value in test [4] (setting [8]) is recorded as 21 ± 4 % Control.
Regarding `CC(C)(F)c1cc2c(c(-c3ccc(F)cc3OCC(F)(F)F)n1)CN(c1ccc(F)cc1)C2=O` [Example 385, 2-(4-fluorophenyl)-6-(2-fluoropropan-2-yl)-4-[4-fluoro-2-(2,2,2-trifluoroethoxy)phenyl]-2,3-dihydro-1H-pyrrolo[3,4-c]pyridin-1-one], the inhibition at 10 µM in test [3] was determined as 99%.
For `CC(C)(C)c1cc2c(c(-c3ccccc3OCC(F)(F)F)n1)CN(c1ccc(C(C)(C)O)cc1)C2=O` [Example 389, 6-tert-butyl-2-[4-(2-hydroxypropan-2-yl)phenyl]-4-[2-(2,2,2-trifluoroethoxy)phenyl]-2,3-dihydro-1H-pyrrolo[3,4-c]pyridin-1-one], the inhibition at 10 µM in test [3] worked out at 100%.

Source of the values: patent publication US12528802B2, “Heterocyclic compound” (Takeda Pharmaceutical Company Limited, priority 2019, dated 2026).
